Format in all cases: functional
In assay [1] the test system is Leishmania tropica. Briefly: Growth inhibition of multidrug resistant Leishmania tropica at 15 uM in presence of 150 uM daunomycin after 72 hrs by MTT assay relative to control.
For assay [2], the system named is Leishmania tropica. Briefly: Growth inhibition of wild type Leishmania tropica LRC at 15 uM after 72 hrs by MTT assay relative to control. The following applies: read-out: GI.
Assay [3] concerns Leishmania tropica. Briefly: Growth inhibition of multidrug resistant Leishmania tropica at 1 uM in presence of 150 uM daunomycin after 72 hrs by MTT assay relative to control.
Assay [4] has as its system Leishmania tropica. Briefly: Growth inhibition of wild type Leishmania tropica LRC at 1 uM after 72 hrs by MTT assay relative to control. The conditions noted are these: read-out: GI.
For assay [5], the system named is Leishmania tropica. Briefly: Growth inhibition of wild type Leishmania tropica LRC at 7 uM after 72 hrs by MTT assay relative to control. The following applies: read-out: GI. Background: Formazan colour is commonly taken as a measure of viable cells.
Assay [6] has as its system Leishmania tropica. Briefly: Growth inhibition of wild type Leishmania tropica LRC at 3 uM after 72 hrs by MTT assay relative to control. The following applies: read-out: GI.
Assay [7] relates to Leishmania tropica. Briefly: Growth inhibition of multidrug resistant Leishmania tropica at 7 uM in presence of 150 uM daunomycin after 72 hrs by MTT assay relative to control.
Assay [8] deals with Leishmania tropica. Briefly: Growth inhibition of multidrug resistant Leishmania tropica at 3 uM in presence of 150 uM daunomycin after 72 hrs by MTT assay relative to control.

Consider `CC(=O)O[C@@H]1[C@@H]2[C@@H](OC(=O)c3cccnc3)[C@@]3(OC2(C)C)[C@@](C)([C@@H](OC(=O)c2ccccc2)CC[C@@]3(C)O)[C@@H]1OC(=O)c1ccccc1`, for which the “growth inhibition (GI)” value in the assay on Leishmania tropica [1] amounted to 98.5%; in the assay with Leishmania tropica [3], 15.8%; with Leishmania tropica [7], 90.2%; in the assay on Leishmania tropica [8], 62.8%. Moreover, in the assay with Leishmania tropica [2], the inhibition of growth at 15 µM was 13.6%. For the same molecule, the inhibition of growth at 1 µM in the assay on Leishmania tropica [4] stood at 0%. Also, the inhibition of growth at 7 µM in the assay on Leishmania tropica [5] came out at 0%. For the same molecule, the inhibition of growth at 3 µM with Leishmania tropica [6] was found to be 0%.

For the molecule `CC(=O)O[C@@H]1[C@@H]2[C@@H](OC(=O)c3cccnc3)[C@]3(OC2(C)C)[C@H](C)CC[C@H](OC(=O)c2ccccc2)[C@@]3(C)[C@@H]1OC(=O)c1ccccc1`, the “growth inhibition (GI)” value stood at 96.1% in the assay on Leishmania tropica [1], 8.6% with Leishmania tropica [3], 59.2% in the assay on Leishmania tropica [7] and 21.2% in the assay on Leishmania tropica [8]. Also, the inhibition of growth at 15 µM in the assay with Leishmania tropica [2] was found to be 2.3%. Moreover, the inhibition of growth at 1 µM in the assay on Leishmania tropica [4] was determined as 0%. Besides, the inhibition of growth at 7 µM with Leishmania tropica [5] amounted to 0.8%. Besides, the inhibition of growth at 3 µM with Leishmania tropica [6] was 0%.
